Values quoted from earlier work as cited in US20240041838A1, “METHODS AND COMPOSITIONS FOR INHIBITION OF NEUTROPHIL RECRUITMENT IN MYCOCARDIAL ISCHEMIA-REPERFUSION INJURY” (University of Connecticut, priority 2022, published 2024).

System: I/R-induced ventricular arrhythmia
Conditions: reported; cited from earlier work

For `CCN(CC)CCCC(C)Nc1nc(C)cc(Nc2ccc3nc(C)cc(N)c3c2)n1` (stereo not shown) [NSC23766], the I/R-induced ventricular arrhythmia is given as “decreased”.
